Tests used:
Test in all cases: relative viability (nuclei count vs DMSO), 5 days (fraction); higher = more cells survive
[1] = compound: CN(c1ncccc1CNc1nc(Nc2ccc3c(c2)CC(=O)N3)ncc1C(F)(F)F)S(C)(=O)=O
In short: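 Lung cancer cell lines received five library-drug doses (not always all listed) spaced by √10, pinned on vehicle-anchored 1536-well plates after an overnight stay at 37 °C. Five days later, with no medium change, nuclei were Hoechst-stained, imaged at 4× and counted with MetaXpress. Viability is treated-well nuclei relative to vehicle-well nuclei, as a median across plates. Passing plates had control CV below 25% and at least one doubling.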

[2] = compound: CN(c1ncccc1CNc1nc(Nc2ccc3c(c2)CC(=O)N3)ncc1C(F)(F)F)S(C)(=O)=O + CC(=O)c1c(C)c2cnc(Nc3ccc(N4CCNCC4)cn3)nc2n(C2CCCC2)c1=O [Palbociclib] (partner 0.5 µM)
In short: (§1)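 Lung cancer cell lines in 1536-well plates were dosed by pin tool the day after seeding, either with one drug alone or with a fixed anchor-drug dose plus five library-drug doses (not always all listed) in √10 steps. After 5 days, cells were fixed and their nuclei stained in one step (final 0.05% Triton X-100, 1% formaldehyde, 1 ug/ml Hoechst), then counted on 4× images. Relative viability is the nuclei count in treated wells divided by that in vehicle wells. Values are medians of duplicate plates.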

[3] = compound: CN(c1ncccc1CNc1nc(Nc2ccc3c(c2)CC(=O)N3)ncc1C(F)(F)F)S(C)(=O)=O + COc1cccc2cc(-c3nc([C@H]4CC[C@H](C(=O)O)CC4)n4ncnc(N)c34)[nH]c12 [OSI-027] (partner 0.5 µM)
In short: as §1

[4] = compound: CN(c1ncccc1CNc1nc(Nc2ccc3c(c2)CC(=O)N3)ncc1C(F)(F)F)S(C)(=O)=O + COc1cc2c(Oc3ccc(NC(=O)C4(C(=O)Nc5ccc(F)cc5)CC4)cc3F)ccnc2cc1OCCCN1CCOCC1 [Foretinib] (partner 0.25 µM)
In short: as §1

| Cell Line | relative viability ([1]; 0.01 µM) | relative viability ([1]; 0.03162 µM) | relative viability ([1]; 0.1 µM) | relative viability ([1]; 0.3162 µM) | relative viability ([1]; 1 µM) | relative viability ([2]; first compound 0.01 µM) | relative viability ([2]; first compound 0.03162 µM) | relative viability ([2]; first compound 0.1 µM) | relative viability ([2]; first compound 0.3162 µM) | relative viability ([2]; first compound 1 µM) | relative viability ([3]; first compound 0.01 µM) | relative viability ([3]; first compound 0.03162 µM) | relative viability ([3]; first compound 0.1 µM) | relative viability ([3]; first compound 0.3162 µM) | relative viability ([3]; first compound 1 µM) | relative viability ([4]; first compound 0.01 µM) | relative viability ([4]; first compound 0.03162 µM) | relative viability ([4]; first compound 0.1 µM) | relative viability ([4]; first compound 0.3162 µM) | relative viability ([4]; first compound 1 µM) |
| --- | --- | --- | --- | --- | --- | --- | --- | --- | --- | --- | --- | --- | --- | --- | --- | --- | --- | --- | --- | --- |
| NCI-H2347 | 1.09 | 0.942 | 0.978 | 0.877 | 0.829 | 0.434 | 0.389 | 0.426 | 0.354 | 0.377 | 0.339 | 0.416 | 0.326 | 0.449 | 0.314 | 0.612 | 0.992 | 1.1 | 0.555 | 0.616 |
| NCI-H2405 | 1.06 | 0.935 | 0.931 | 0.8 | 0.82 | 0.51 | 0.518 | 0.504 | 0.466 | 0.391 | 0.617 | 0.676 | 0.572 | 0.51 | 0.533 | 1.02 | 1.07 | 0.976 | 0.886 | 0.82 |
| NCI-H3122 | 0.994 | 1.06 | 1.01 | 1.03 | 0.953 | 0.204 | 0.188 | 0.155 | 0.202 | 0.149 | 0.976 | 1.07 | 0.762 | 1.06 | 0.954 | 1.01 | 0.876 | 0.916 | 0.902 | 0.929 |
| PC-3 [JPC-3] | 0.998 | 1.05 | 0.981 | 1.03 | 0.943 | 0.606 | – | 0.529 | 0.453 | 0.455 | 0.722 | 0.742 | 0.739 | 0.805 | 0.768 | 1.07 | 1.03 | 0.999 | 1.04 | 0.929 |
| PC-14 | 1.09 | 1.09 | 1.05 | 0.982 | 0.963 | 0.543 | 0.635 | 0.526 | 0.515 | 0.364 | 0.931 | 1.05 | 0.895 | 1.13 | 0.809 | 1.01 | 1.04 | 1.01 | 1.07 | 1 |
| RERF-LC-KJ | 0.986 | 1.16 | 1.03 | 0.989 | 1.01 | 1.17 | 1.15 | 1.09 | 1.03 | 1.02 | 0.632 | 0.585 | 0.529 | 0.656 | 0.573 | 0.867 | 1.03 | 0.861 | 0.843 | 0.939 |
| SK-LU-1 | 1.04 | 1.15 | 0.993 | 1.02 | 0.908 | 0.405 | 0.358 | 0.398 | 0.401 | 0.369 | 0.343 | 0.411 | 0.371 | 0.351 | 0.284 | 0.823 | 0.845 | 0.712 | 0.815 | 0.61 |
| SK-MES-1 | 1.01 | 1.06 | 0.954 | 0.971 | 0.832 | 0.286 | 0.298 | 0.304 | 0.296 | 0.294 | 0.562 | 0.571 | 0.475 | 0.491 | 0.429 | 0.905 | 0.919 | 0.817 | 1.01 | 0.868 |
| SW 900 | 1.03 | 0.961 | 0.791 | 0.867 | 0.753 | 0.513 | 0.48 | 0.52 | 0.52 | 0.456 | 0.623 | 0.574 | 0.659 | 0.514 | 0.49 | 0.796 | 0.964 | 0.872 | 0.894 | 0.566 |
| SW 1573 | 0.996 | 1.12 | 0.974 | 0.922 | 0.944 | 0.482 | 0.399 | 0.346 | 0.31 | 0.35 | 0.549 | 0.669 | 0.569 | 0.738 | 0.559 | 0.961 | 0.856 | 0.884 | 1.16 | 0.975 |
| UMC-11 | 0.961 | 0.966 | 0.993 | 0.963 | 0.861 | 0.316 | 0.346 | 0.394 | 0.317 | 0.34 | 0.461 | 0.477 | 0.45 | 0.459 | 0.421 | 0.972 | 1.14 | 0.953 | 1.01 | 0.823 |

Source: the supplement of paper PMC10307832
